# Patent US12239643B2, “Therapeutic agent for inflammatory diseases, autoimmune diseases, fibrotic diseases, and cancer diseases” (MEIJI SEIKA PHARMA CO., LTD., priority 2018, dated 2025)
# Where two headings read alike, the source gives them in different places.
# Tests used:
# [1] = tested on: PDE4; assay: Evaluation of PDE4 inhibitory activity, scintillation proximity assay; type: biochemical; conditions: for PDE4 inhibitory activity: summary in words of Tables 57 to 69
# Procedure, shortened: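 SPA with [2,8-3H]-cAMP and diluted PDE4 enzyme preparation in 50 mM Tris-HCl pH 7.4, 8.3 mM MgCl2, 1.7 mM EGTA, 3 mg/mL BSA, 120 min at room temperature. Product captured on ZnSO4-containing YSi-SPA beads, scintillation counted; IC50 from inhibition curves vs DMSO control and no-enzyme blank.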
# [2] = tested on: oxazolone-induced auricle edema, BALB/c mice; assay: Hapten repeated application mouse chronic dermatitis model (oral, topical); type: in vivo; conditions: oral, 0.3 to 10 mg/kg twice a day for 10 days
# Protocol: Evaluation was carried out using female BALB/c mice (7 to 8 weeks of age). First, the hair of the abdomen of the mice was treated with a hair clipper, and then 150 μL of a 3% oxazolone acetone/ethanol solution was applied to the abdomen as a hapten. One week later, 20 μL/ear of 1% oxazolone acetone/ethanol solution was applied to the outer surface of the auricle of both ears of the mice 3 times/week to induce inflammation. A 1% oxazolone-acetone/ethanol solution was applied every other day for 10 days from 1 week after the start of inflammation induction. In addition, for 10 days from 1 week after the start of inflammation induction, the test compound suspended in 0.5% w/v methylcellulose (0.5% MC) was orally administered at 0.3 to 10 mg/kg twice a day (10 μL/g), or 20 μL of a 0.3 to 3% test compound dissolved in an acetone/ethanol solution was applied once or twice a day (topical administration). A 1% oxazolone was not applied to the blank. The control was one in which 1% oxazolone was applied and only 0.5% MC was orally administered without using the test compound, or only an acetone/ethanol solution was applied.
# After administration for 10 days, auricle thickness was measured using a dial thickness gauge, and the changes in auricular thickness before the treatment (immediately before the start of administration of the test compound) and after the treatment (after the administration of the test compound for 10 days) were used to calculate the edema suppression rate by the following formula. Edema Suppression Rate (%)={1−(Auricle Thickness After Treatment by Test Compound−Auricle Thickness Before Treatment by Test Compound)/(Auricle Thickness After Treatment of Control−Auricle Thickness Before Treatment of Control)}×100
# The measurement results obtained by measuring the edema suppression rate at the time of oral administration of each test compound by the above method were evaluated in accordance with the following evaluated basis; A: 70% or more, B: 40% or more and less than 70%, and C: less than 40%. In addition, the measurement results obtained by measuring the edema suppression rate at the time of topical administration of each test compound were evaluated in accordance with the following evaluated basis; A: 100% or more, B: 70% or more and less than 100%, and C: less than 70%.
# [3] = tested on: TNFα; assay: Cytokine suppression using whole human blood: TNFα (lipopolysaccharide stimulus); type: cell-based; conditions: human whole blood, read-out: TNFα Inhibitory Activity, Human Whole Blood (Test Example 3)
# Protocol: The test compound dissolved in dimethyl sulfoxide was added to a 96-well plate, and RPMI-1640 medium and human peripheral blood containing sodium heparin were added, followed by culture at 37° C. under 5% CO2 for 1 hour. A medium containing only dimethyl sulfoxide instead of the test compound was added to the control well. To each well, lipopolysaccharide (final concentration 10 ng/mL) as a TNFα production stimulant, or phytohaemagglutinin (final concentration 20 μg/mL) as an IL-17A production stimulant, or CytoStim reagent ( 1/100 concentration) and CD28 antibody (final concentration 2.5 ng/mL) as an IL-4 production stimulant and an IL-5 production stimulant were added, followed by culture at 37° C. under 5% CO2. The culture was carried out for about 18 hours for the evaluation of the amount of TNFα, and for about 48 hours for the evaluation of the amounts of IL-17A, IL-4, and IL-5.
# After collecting the culture supernatant after culturing, the amount of each cytokine was measured by the sandwich ELISA method. The cytokine production suppression rate (inhibition rate) by the test compound was calculated by the following formula from the cytokine production amount when the test compound was added, with the cytokine production amount for the control well as 100%. Inhibition Rate={1−(Cytokine Amount at Addition of Each Test Compound)/(Cytokine Amount for Control Well)}×100
# In addition, the cytokine inhibitory activity (concentration for the inhibition rate of 50%) of the test compound was calculated from the inhibition curves based on the inhibition rates for various concentrations of the test compound.
# The measurement results obtained by measuring the TNFα inhibitory activity and IL-5 inhibitory activity (50% inhibitory concentration) of the test compounds by the above method were evaluated in accordance with the following evaluated basis; A: less than 100 nM, B: 100 nM or more and less than 500 nM, and C: 500 nM or more. In addition, the measurement results obtained by measuring the IL-17A inhibitory activity and IL-4 inhibitory activity (50% inhibitory concentration) of the test compounds were evaluated in accordance with the following evaluated basis; A: less than 500 nM, B: 500 nM or more and less than 5000 nM, and C: 5000 nM or more.
# [4] = tested on: TNFα; assay: Cytokine suppression using human peripheral blood mononuclear cells: TNFα; type: cell-based; conditions: human PBMC, lipopolysaccharide 1 ng/mL; read-out: TNFα Inhibitory Activity, Human PBMC (Test Example 4)
# Protocol: First, peripheral blood mononuclear cells (PBMC) were separated from whole blood by specific gravity centrifugation. Then, the isolated peripheral blood mononuclear cells were added to RPMI-1640 medium (containing 10% fetal bovine serum, penicillin, streptomycin, L-glutamine, and 2-mercaptoethanol), and cultured in a 96-well plate at 37° C. under 5% CO2 for 0 to 1 hour. The test compound dissolved in dimethyl sulfoxide was added to each well, followed by further culture at 37° C. under 5% CO2 for 1 hour. A medium containing only dimethyl sulfoxide instead of the test compound was added to the control well. To each well, lipopolysaccharide (final concentration 1 ng/mL) as a TNFα production stimulant and an IL-23 production stimulant, or concanavalin A (final concentration 20 μg/mL) as an IL-17A production stimulant was added, followed by culture at 37° C. under 5% CO2. In addition, as IL-4 production stimulus, IL-5 production stimulus, and IL-13 production stimulus, PBMC was seeded on a 96-well plate previously coated with a CD3 antibody (final concentration 3 μg/mL), and a CD28 antibody (final concentration 5 ng/mL) was added. The culture was carried out for about 18 hours for the evaluation of the amounts of TNFα and IL-23, and about 48 hours for the evaluation of the amounts of IL-17A, IL-4, IL-5, and IL-13. After collecting the culture supernatant after culturing, the amount of each cytokine was measured by the sandwich ELISA method in the same manner as in Test Example 3, and the cytokine production suppression rate (inhibition rate) and the cytokine inhibitory activity (concentration for the inhibition rate of 50%) of each test compound were calculated.
# The measurement results obtained by measuring the TNFα inhibitory activity and IL-5 inhibitory activity (50% inhibitory concentration) of the test compounds by the above method were evaluated in accordance with the following evaluated basis; A: less than 10 nM, B: 10 nM or more and less than 100 nM, and C: 100 nM or more. In addition, the measurement results obtained by measuring the IL-17A inhibitory activity, IL-23 inhibitory activity, IL-4 inhibitory activity, and IL-13 inhibitory activity (50% inhibitory concentration) of the test compounds were evaluated in accordance with the following evaluated basis; A: less than 500 nM, B: 500 nM or more and less than 5000 nM, and C: 5000 nM or more.
# [5] = tested on: TGF-β; assay: TGF-β inhibitory activity using THP1 cells differentiated into macrophages; type: cell-based; conditions: Homo sapiens, THP-1; THP1 cells differentiated into macrophages, lipopolysaccharide 1 μg/mL, about 7 hours; read-out: TFG-β Inhibitory Activity (Test Example 6)
# Protocol: The TGF-β inhibitory activity was measured using THP1 cells as follows. First, THP1 cells were seeded on a 24-well culture plate at […], and culture was carried out overnight at 37° C. and 5% CO2 in RPMI-1640 medium (containing 10% fetal bovine serum, penicillin, and streptomycin) supplemented with 100 nM phorbol myristate acetate. After that, the cells were differentiated into macrophages by changing to RPMI-1640 medium without phorbol myristate acetate, followed by further culture at 37° C. under 5% CO2 overnight. Next, the THP1 culture plate was washed once with PBS(−) 1 mL/well, and then the test compound and lipopolysaccharide (final concentration 1 μg/mL) were added, followed by culture at 37° C. under 5% CO2 for about 7 hours. After culturing, the entire amount of the medium was collected, and the amount of TGF-β in the centrifuged supernatant was quantified by the sandwich ELISA method. The non-addition of lipopolysaccharide was used as a blank, and the control was obtained by adding only dimethyl sulfoxide instead of the test compound, and the inhibition rate of the test compound against the control was calculated by the following formula. Inhibition Rate (%)={1−(Value at Addition of Each Test Compound−Blank Value)/(Control Value−Blank Value)}×100
# In addition, the TGF-β inhibitory activity (concentration for the inhibition rate of 50%) of the test compound was calculated from the inhibition curves based on the inhibition rate for various concentrations of the test compound.
# The measurement results obtained by measuring the TFG-β inhibitory activity (50% inhibitory concentration) of the test compounds by the above method were evaluated in accordance with the following evaluated basis; A: less than 1 μM, and B: 1 μM or more.
# [6] = Hepatic metabolic stability (rat liver microsome method); type: in vitro ADME; conditions: rat liver microsomes 0.5 mg/mL, test substance 1 μM, NADPH 1 mM, 37° C., 30 minutes
# Procedure, shortened: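 Rat liver microsomes (0.5 mg/mL final) with test compound (1 μM final) in 100 mM potassium phosphate pH 7.4, 37° C; reaction started with NADPH (1 mM final) after 5 min preincubation. Acetonitrile stop at 0 and 30 min, LC-MS quantitation; % remaining = 30 min/0 min ×100, graded A ≥75%, B 60–<75%, C 45–<60%, D <45%.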
# [7] = finer grading of compounds rated A in Evaluation 1, read-out: PDE4 Inhibitory Activity (Evaluation 2)
# [8] = scintillation proximity assay, class symbols of Evaluation 1, read-out: PDE4 Inhibitory Activity (concentration for the inhibition rate of 50%, IC50), Evaluation 1
# [9] = scintillation proximity assay, read-out: PDE4 Inhibitory Activity (Evaluation 1; concentration for the inhibition rate of 50%)
Structure (SMILES),"IC50 [1, 7]","IC50 [1, 8]",PDE4 inhibitory activity [1],"Mouse Chronic Dermatitis Model (Test Example 8), Oral: edema suppression rate [2]",IC50 [3],IC50 [4],IC50 ([3]; Homo sapiens),"IC50 [1, 9]",IC50 [5],Residual ratio (% remaining for 30-minute reaction) [6]
"OC(c1ccc(-c2nccs2)c2oc(N3CC4CCC(C3)N4)nc12)C(F)(F)F (centres unmarked) [Example 119, 1-(2-(3,8-Diazabicyclo[3.2.1]octan-3-yl)-7-(thiazol-2-yl)benzo[d]oxazol-4-yl)-2,2,2-trifluoroethan-1-ol]",≤ 1 nM,< 100 nM,particularly excellent,A (A: 70% or more),< 100 nM,< 10 nM,–,–,–,–
"COC(C)(C)c1cc(-c2nccs2)c2oc(N3CC4CC(C3)N4)nc2c1C(F)(F)F [Example 176, 2-(3,6-Diazabicyclo[3.1.1]heptan-3-yl)-5-(2-methoxypropan-2-yl)-7-(thiazol-2-yl)-4-(trifluoromethyl)benzo[d]oxazole]",1 to 11 nM,< 100 nM,particularly excellent,B (B: 40% or more and less than 70%),–,–,100 to 500 nM,–,–,–
"CC(C)(O)c1cc(-c2nccs2)c2oc(N3CC4CCC(C3)N4)nc2c1OC(F)(F)F [Example 195, 2-(2-(3,8-diazabicyclo[3.2.1]octan-3-yl)-7-(thiazol-2-yl)-4-(trifluoromethoxy)benzo[d]oxazol-5-yl)propan-2-ol]",≤ 1 nM,–,particularly excellent,B (B: 40% or more and less than 70%),–,–,100 to 500 nM,< 100 nM,< 1000 nM,–
"OCC(F)(F)Oc1ccc(-c2nccs2)c2oc(N3CC4CC(C3)N4)nc12 [Example 249, 2-((2-(3,6-Diazabicyclo[3.1.1]heptan-3-yl)-7-(thiazol-2-yl)benzo[d]oxazol-4-yl)oxy)-2,2-difluoroethan-1-ol]",≤ 1 nM,–,particularly excellent,B (B: 40% or more and less than 70%),–,–,< 100 nM,< 100 nM,–,B (B: 60% or more and less than 75%)
